{"source": "patent US6747021B2", "about": "“Cryptophycin compound” (Eli Lilly and Company, priority 2000, dated 2004)", "key": {"[1]": {"tested_on": "MAMMARY ADENOCARCINOMA 16/C", "type": "in vivo, murine", "details": "C3H/HeN female mice", "excerpt": "(§1) Inhibition of tumors transplanted into mice is an accepted procedure for studying the efficacy of antitumor agents (Corbett, et al., In vivo Methods for Screening and Preclinical Testing; Use of rodent solid tumors for drug discovery., In: Anticancer Drug Development Guide: Preclinical Screening, Clinical Trials, and Approval, B. Teicher (ed), Humana Press Inc., Totowa, N.J., Chapter 5, pages 75-99 (1997); (Corbett, et al., Int. J. Pharmacog., 33, Supplement, 102-122 (1995)). Murine tumors or human xenographs were implanted essentially as described by Corbett in In vivo Methods for Screening and Preclinical Testing; Use of rodent solid tumors for drug discovery. Briefly, the murine tumor or human xenograph was implanted subcutaneously using either 12-gauge trocar implants or counted number of cells. The location for the trocar insertion is midway between the axillary and inguinal region along the side of the mouse. The trocar is slipped approximately ¾ of an inch subcutaneously up toward the axilla before discharging the tumor fragment, and pinching the skin as the trocar is removed. Alternatively, human tumor cells prepared from a […] of donor tumors (5×10^6 cells) were implanted subcutaneously in a hind-leg of a male or female nude mouse (Charles River). Either a test compound in vehicle or vehicle alone was administered by intravenous bolus injection (iv), intraperitoneal injection (ip), or oral gavage (po). Each treatment group, as well as a group of untreated control animals, consisted of five animals per group in each experiment. Subcutaneous tumor response was monitored by tumor volume measurement performed twice each week over the course of the experiment (60-120 days). Body weights were taken as a general measure of toxicity. The subcutaneous tumor data were analyzed by determining the median tumor weight for each treatment group over the course of the experiment and calculating the tumor growth delay as the difference in days for the treatment versus the control tumors to reach a volume of either 500 or 1000 mm^3.\n(§2) Cryptophycin-309 (309) was tested against a variety of murine and human tumors substantially as described supra. Cryptophycin-55 glycinate (55-GLY), Taxol, and Adriamycin (Adria) were also included in certain tests for purposes of comparison. Cryptophycin 55 glycinate is known in the art (WO 98/08505, Example 9) and has the following structure: [drawing 9]\n(§3) Tumor Weight(mg)=(a×b^2)/2 where a=tumor length (mm) and b=tumor width (mm).\n(§4) Tumor Growth Delay=T−C where T is the median time (days) required for the treatment group tumors to reach a predetermined size, and C is the median time (days) for the control group tumors to reach the same size. Tumor-free survivors are excluded from this calculation, and are tabulated separately (Tumor Free).\n(§5) Log Kill=Tumor Growth Delay/(3.32)(Td)\n(§6) where Tumor Growth Delay is as previously defined and Td is tumor volume doubling time (days), estimated from the best fit straight line from a log-linear growth plot of the control group of tumors in exponential growth (100-800 mg range)\n(§7) %T/C mass—The treatment and control groups are measured when the control group tumors reach approximately 700 to 1200 mg in size (median group). The median tumor weight of each group is determined (including zeros). The T/C value in percent is an indication of antitumor effectiveness. A T/C≦42% is considered significant antitumor activity. A T/C<10% is considered to indicate highly significant antitumor activity.\n(§8) Body Weight Loss Nadir—A body weight loss nadir (mean of group) of greater than 20% or drug deaths greater than 20% are considered to indicate an excessively toxic dosage in single course trials.\n(§9) Activity Rating—the Activity Rating is derived from the Log Kill according to the following table: […]"}, "[2]": {"tested_on": "MAMMARY ADENOCARCINOMA-17/ADR/Resist.", "type": "in vivo, murine", "details": "IV 30 mg/kg/inj days 1,3,5,7,9; total dose 150 mg/kg; C3H female mice", "excerpt": "as §1, §2, §3, §4, §5, §6, §7, §8, §9"}, "[3]": {"tested_on": "PANCREATIC DUCTAL ADENOCARCINOMA #02", "type": "in vivo, murine", "details": "BDF1 female mice", "excerpt": "as §1, §2, §3, §4, §5, §6, §7, §8, §9"}, "[4]": {"experiment": "Toxicity relative to other cryptophycins (general statement)", "details": "compared with other cryptophycins; no test described"}, "[5]": {"details": "IV 20 mg/kg/inj days 3,5,7,9,11, total dose 100 mg/kg"}, "[6]": {"details": "IV 30 mg/kg/inj days 3,5,7,9,11, total dose 150 mg/kg"}, "[7]": {"details": "IV 20 mg/kg/inj days 1,3,5,7,9, total dose 100 mg/kg, experiment #"}, "[8]": {"details": "IV 30 mg/kg/inj days 1,3,5,7,9, total dose 150 mg/kg, experiment #"}, "[9]": {"details": "IV 33 mg/kg/inj days 1,3,5,7,9, total dose 165 mg/kg, experiment ##"}}, "note": "Where two headings read alike, the source gives them in different places."}
{"smiles": "COc1ccc(C[C@H]2NC(=O)/C=C/C[C@@H]([C@H](C)[C@@H](OC(=O)CN)[C@@H](Cl)c3ccccc3)OC(=O)[C@H](CC(C)(C)C)OC(=O)[C@H](C)CNC2=O)cc1Cl", "note": "[Cryptophycin 309, Cryptophycin-309]", "values": [{"measurement": "% T/C MASS", "setting": "[1]; [5]", "value": 0, "unit": "%"}, {"measurement": "ACTIVITY RATING", "setting": "[1]; [5]", "value": "++++ (>2.8)"}, {"measurement": "DRUG DEATHS", "setting": "[1]; [5]", "value": "0/5"}, {"measurement": "GROWTH DELAY", "setting": "[1]; [5]", "value": 17, "unit": "days"}, {"measurement": "LOG KILL", "setting": "[1]; [5]", "value": 3.9}, {"measurement": "MEDIAN TUMOR WEIGHT", "setting": "[1]; [5]", "value": 0, "unit": "mg"}, {"measurement": "% T/C MASS", "setting": "[1]; [6]", "value": 0, "unit": "%"}, {"measurement": "ACTIVITY RATING", "setting": "[1]; [6]", "value": "++++ (>2.8)"}, {"measurement": "DRUG DEATHS", "setting": "[1]; [6]", "value": "0/5"}, {"measurement": "GROWTH DELAY", "setting": "[1]; [6]", "value": 16.5, "unit": "days"}, {"measurement": "LOG KILL", "setting": "[1]; [6]", "value": 3.8}, {"measurement": "MEDIAN TUMOR WEIGHT", "setting": "[1]; [6]", "value": 0, "unit": "mg"}, {"measurement": "% T/C MASS", "setting": "[2]", "value": 0, "unit": "%"}, {"measurement": "ACTIVITY RATING", "setting": "[2]", "value": "++++ (>2.8)"}, {"measurement": "DRUG DEATHS", "setting": "[2]", "value": "0/5"}, {"measurement": "GROWTH DELAY", "setting": "[2]", "value": 10.75, "unit": "days"}, {"measurement": "LOG KILL", "setting": "[2]", "value": 3.23}, {"measurement": "MEDIAN TUMOR WEIGHT", "setting": "[2]", "value": 0, "unit": "mg"}, {"measurement": "% T/C MASS", "setting": "[3]; [7]", "value": 3.8, "unit": "%"}, {"measurement": "ACTIVITY RATING", "setting": "[3]; [7]", "value": "++ (1.3-1.9)"}, {"measurement": "DRUG DEATHS", "setting": "[3]; [7]", "value": "0/5"}, {"measurement": "GROWTH DELAY", "setting": "[3]; [7]", "value": 13, "unit": "days"}, {"measurement": "LOG KILL", "setting": "[3]; [7]", "value": 1.7}, {"measurement": "MEDIAN TUMOR WEIGHT", "setting": "[3]; [7]", "value": 63, "unit": "mg"}, {"measurement": "% T/C MASS", "setting": "[3]; [8]", "value": 3.8, "unit": "%"}, {"measurement": "ACTIVITY RATING", "setting": "[3]; [8]", "value": "++ (1.3-1.9)"}, {"measurement": "DRUG DEATHS", "setting": "[3]; [8]", "value": "0/5"}, {"measurement": "GROWTH DELAY", "setting": "[3]; [8]", "value": 13, "unit": "days"}, {"measurement": "LOG KILL", "setting": "[3]; [8]", "value": 1.7}, {"measurement": "MEDIAN TUMOR WEIGHT", "setting": "[3]; [8]", "value": 64, "unit": "mg"}, {"measurement": "% T/C MASS", "setting": "[3]; [9]", "value": 0, "unit": "%"}, {"measurement": "ACTIVITY RATING", "setting": "[3]; [9]", "value": "+++ (2.0-2.8)"}, {"measurement": "DRUG DEATHS", "setting": "[3]; [9]", "value": "0/5"}, {"measurement": "GROWTH DELAY", "setting": "[3]; [9]", "value": 15.25, "unit": "days"}, {"measurement": "LOG KILL", "setting": "[3]; [9]", "value": 2.7}, {"measurement": "MEDIAN TUMOR WEIGHT", "setting": "[3]; [9]", "value": 0, "unit": "mg"}, {"measurement": "toxicity", "setting": "[4]", "value": "lower toxicity than other cryptophycins"}]}
